Assay results reported in ChEMBL document CHEMBL3885861, “Open TG-GATES”.

Species on record: Rattus norvegicus
Assay: Open TG-GATES - Regimen: Single
Format: toxicity, organism-based, Sprague-Dawley
Set-up: regimen Single, gender Male, age 6 weeks
Details: in vivo, po, 0 mg/kg, route gavage, dose level Control; for APTT / Bas / Eos / Fbg / Hb / Ht / Lym / MCH / MCHC / MCV / Mono / Neu / PT / RBC / Ret / WBC / Plat: tissue Blood; for KIDNEY_L / KIDNEY_R / KIDNEY_TOTAL: tissue Kidney; for LIVER: tissue Liver

With C[C@H](CS)C(=O)N1CCC[C@H]1C(=O)O [CAPTOPRIL] as the molecule, how does the TERMINAL_BW (3 h) read?
Its TERMINAL_BW is 220.9 g.

What about the APTT (3 h) of the same molecule?
The APTT was 16.4 s.

What about the Bas (3 h) of the same molecule?
The Bas was 0%.

What about the Eos (3 h) of the same molecule?
The Eos was 1.2%.

And the Fbg (3 h)?
The Fbg was 204.8 mg/dL.

And the Hb (3 h)?
Its Hb is 13.1 g/dL.

And the Ht (3 h)?
Its Ht is 39.7%.

What about the Lym (3 h) of the same molecule?
Its Lym is 79.2%.

What about the MCH (3 h) of the same molecule?
Its MCH is 21.4 pg.

What about the MCHC (3 h) of the same molecule?
The MCHC was 33.1%.

And the MCV (3 h)?
Its MCV is 64.5 fL.

And the Mono (3 h)?
Its Mono is 6%.

And the Neu (3 h)?
Its Neu is 14%.

What about the PT (3 h) of the same molecule?
Its PT is 11.7 s.

And the RBC (3 h)?
The RBC was 615.2 x10_4/ul.

What about the Ret (3 h) of the same molecule?
The Ret was 7.5%.

What about the WBC (3 h) of the same molecule?
The WBC was 110.3 x10_2/uL.

And the KIDNEY_L (3 h)?
Its KIDNEY_L is 0.9 g.

And the KIDNEY_R (3 h)?
Its KIDNEY_R is 1 g.

What about the KIDNEY_TOTAL (3 h) of the same molecule?
Its KIDNEY_TOTAL is 1.9 g.

What about the ALP (3 h, tissue Plasma) of the same molecule?
Its ALP is 902.4 IU/L.

What about the ALT (3 h, tissue Plasma) of the same molecule?
Its ALT is 34 IU/L.

And the AST (3 h, tissue Plasma)?
The AST was 65.2 IU/L.

And the BUN (3 h, tissue Plasma)?
The BUN was 13 mg/dL.

What about the CRE (3 h, tissue Plasma) of the same molecule?
Its CRE is 0.5 mg/dL.

And the DBIL (3 h, tissue Plasma)?
Its DBIL is 0.018 mg/dL.

What about the GLC (3 h, tissue Plasma) of the same molecule?
The GLC was 193.6 mg/dL.

What about the IP (3 h, tissue Plasma) of the same molecule?
Its IP is 9.9 mg/dL.

What about the K (3 h, tissue Plasma) of the same molecule?
Its K is 5.1 meq/L.

And the LDH (3 h, tissue Plasma)?
The LDH was 84.6 IU/L.

What about the Na (3 h, tissue Plasma) of the same molecule?
The Na was 137.6 meq/L.

What about the PL (3 h, tissue Plasma) of the same molecule?
Its PL is 127.6 mg/dL.

What about the RALB (3 h, tissue Plasma) of the same molecule?
The RALB was 3.7 g/dL.

And the TBIL (3 h, tissue Plasma)?
Its TBIL is 0.4 mg/dL.

What about the TC (3 h, tissue Plasma) of the same molecule?
The TC was 70.8 mg/dL.

What about the TG (3 h, tissue Plasma) of the same molecule?
The TG was 42.6 mg/dL.

And the TP (3 h, tissue Plasma)?
Its TP is 5.4 g/dL.

What about the gamma-GTP (3 h, tissue Plasma) of the same molecule?
The gamma-GTP was 1.6 IU/L.

What about the TERMINAL_BW (6 h) of the same molecule?
Its TERMINAL_BW is 220.4 g.

And the APTT (6 h)?
The APTT was 15.7 s.

And the Bas (6 h)?
Its Bas is 0%.

And the Eos (6 h)?
The Eos was 1.2%.

What about the Hb (6 h) of the same molecule?
Its Hb is 13.5 g/dL.

And the Ht (6 h)?
Its Ht is 41.1%.

And the Lym (6 h)?
The Lym was 76.8%.

What about the MCH (6 h) of the same molecule?
Its MCH is 21.1 pg.

And the MCHC (6 h)?
Its MCHC is 32.9%.

What about the MCV (6 h) of the same molecule?
Its MCV is 64.3 fL.

What about the Mono (6 h) of the same molecule?
The Mono was 6.2%.

What about the Neu (6 h) of the same molecule?
The Neu was 16.2%.

And the PT (6 h)?
Its PT is 11.8 s.

What about the Plat (6 h) of the same molecule?
Its Plat is 118.9 x10_4/uL.

And the RBC (6 h)?
Its RBC is 639.6 x10_4/ul.

What about the Ret (6 h) of the same molecule?
Its Ret is 7.5%.

And the WBC (6 h)?
Its WBC is 124.4 x10_2/uL.

And the KIDNEY_L (6 h)?
Its KIDNEY_L is 1 g.

And the KIDNEY_R (6 h)?
Its KIDNEY_R is 1 g.

What about the KIDNEY_TOTAL (6 h) of the same molecule?
The KIDNEY_TOTAL was 2 g.

And the ALP (6 h, tissue Plasma)?
The ALP was 725.4 IU/L.

What about the ALT (6 h, tissue Plasma) of the same molecule?
The ALT was 31.2 IU/L.

And the AST (6 h, tissue Plasma)?
Its AST is 58.4 IU/L.

What about the BUN (6 h, tissue Plasma) of the same molecule?
Its BUN is 11.8 mg/dL.

And the CRE (6 h, tissue Plasma)?
The CRE was 0.6 mg/dL.

What about the DBIL (6 h, tissue Plasma) of the same molecule?
Its DBIL is 0.012 mg/dL.

What about the GLC (6 h, tissue Plasma) of the same molecule?
The GLC was 198.2 mg/dL.

What about the K (6 h, tissue Plasma) of the same molecule?
Its K is 4.7 meq/L.

What about the LDH (6 h, tissue Plasma) of the same molecule?
Its LDH is 75.6 IU/L.

What about the Na (6 h, tissue Plasma) of the same molecule?
Its Na is 139 meq/L.

What about the PL (6 h, tissue Plasma) of the same molecule?
The PL was 135.6 mg/dL.

What about the RALB (6 h, tissue Plasma) of the same molecule?
The RALB was 3.6 g/dL.

What about the TBIL (6 h, tissue Plasma) of the same molecule?
The TBIL was 0.3 mg/dL.

What about the TC (6 h, tissue Plasma) of the same molecule?
Its TC is 76.8 mg/dL.

And the TG (6 h, tissue Plasma)?
Its TG is 60 mg/dL.

What about the TP (6 h, tissue Plasma) of the same molecule?
Its TP is 5.3 g/dL.

And the gamma-GTP (6 h, tissue Plasma)?
The gamma-GTP was 1.4 IU/L.

What about the TERMINAL_BW (9 h) of the same molecule?
The TERMINAL_BW was 222.4 g.

And the APTT (9 h)?
The APTT was 16.3 s.

What about the Bas (9 h) of the same molecule?
Its Bas is 0%.

And the Eos (9 h)?
The Eos was 1%.

And the Fbg (9 h)?
The Fbg was 207.2 mg/dL.

And the Hb (9 h)?
Its Hb is 12.9 g/dL.

What about the Ht (9 h) of the same molecule?
Its Ht is 39.1%.

What about the Lym (9 h) of the same molecule?
Its Lym is 79.8%.

What about the MCH (9 h) of the same molecule?
Its MCH is 21.2 pg.

And the MCHC (9 h)?
The MCHC was 33%.

What about the MCV (9 h) of the same molecule?
The MCV was 64.5 fL.

And the Mono (9 h)?
The Mono was 5.4%.

What about the Neu (9 h) of the same molecule?
Its Neu is 14%.

And the PT (9 h)?
The PT was 12.2 s.

And the Plat (9 h)?
Its Plat is 118.8 x10_4/uL.

What about the RBC (9 h) of the same molecule?
The RBC was 607 x10_4/ul.

What about the Ret (9 h) of the same molecule?
Its Ret is 7.9%.

What about the WBC (9 h) of the same molecule?
The WBC was 89.1 x10_2/uL.

What about the KIDNEY_L (9 h) of the same molecule?
The KIDNEY_L was 1 g.

What about the KIDNEY_R (9 h) of the same molecule?
Its KIDNEY_R is 1 g.

And the KIDNEY_TOTAL (9 h)?
Its KIDNEY_TOTAL is 2.1 g.

And the LIVER (9 h)?
The LIVER was 9.6 g.

And the ALP (9 h, tissue Plasma)?
Its ALP is 868 IU/L.

And the ALT (9 h, tissue Plasma)?
The ALT was 33.4 IU/L.

What about the AST (9 h, tissue Plasma) of the same molecule?
Its AST is 60.2 IU/L.

And the BUN (9 h, tissue Plasma)?
The BUN was 13.4 mg/dL.

What about the CRE (9 h, tissue Plasma) of the same molecule?
Its CRE is 0.4 mg/dL.

What about the DBIL (9 h, tissue Plasma) of the same molecule?
The DBIL was 0.078 mg/dL.

What about the GLC (9 h, tissue Plasma) of the same molecule?
Its GLC is 200 mg/dL.

What about the IP (9 h, tissue Plasma) of the same molecule?
The IP was 10 mg/dL.

And the K (9 h, tissue Plasma)?
The K was 4.9 meq/L.

What about the LDH (9 h, tissue Plasma) of the same molecule?
The LDH was 53.8 IU/L.

What about the Na (9 h, tissue Plasma) of the same molecule?
Its Na is 137.8 meq/L.

And the PL (9 h, tissue Plasma)?
The PL was 132.2 mg/dL.

And the RALB (9 h, tissue Plasma)?
Its RALB is 3.6 g/dL.

And the TBIL (9 h, tissue Plasma)?
The TBIL was 0.4 mg/dL.

What about the TC (9 h, tissue Plasma) of the same molecule?
The TC was 68.8 mg/dL.

What about the TG (9 h, tissue Plasma) of the same molecule?
Its TG is 64.8 mg/dL.

And the TP (9 h, tissue Plasma)?
Its TP is 5.4 g/dL.

What about the gamma-GTP (9 h, tissue Plasma) of the same molecule?
The gamma-GTP was 2 IU/L.

And the TERMINAL_BW (24 h)?
The TERMINAL_BW was 235.3 g.

What about the APTT (24 h) of the same molecule?
Its APTT is 15.7 s.

What about the Bas (24 h) of the same molecule?
The Bas was 0%.

And the Eos (24 h)?
The Eos was 1.4%.

And the Hb (24 h)?
The Hb was 13.4 g/dL.

What about the Ht (24 h) of the same molecule?
Its Ht is 40.3%.

What about the Lym (24 h) of the same molecule?
Its Lym is 77.6%.

And the MCH (24 h)?
Its MCH is 21.7 pg.

And the MCHC (24 h)?
The MCHC was 33.1%.

And the MCV (24 h)?
Its MCV is 65.6 fL.

What about the Mono (24 h) of the same molecule?
Its Mono is 5.8%.

What about the Neu (24 h) of the same molecule?
Its Neu is 15.4%.

And the PT (24 h)?
Its PT is 11.4 s.

What about the Plat (24 h) of the same molecule?
The Plat was 115.5 x10_4/uL.

And the RBC (24 h)?
The RBC was 614.6 x10_4/ul.

And the Ret (24 h)?
The Ret was 9.1%.

What about the WBC (24 h) of the same molecule?
Its WBC is 114 x10_2/uL.

And the KIDNEY_L (24 h)?
Its KIDNEY_L is 1 g.

What about the KIDNEY_R (24 h) of the same molecule?
Its KIDNEY_R is 1 g.

And the KIDNEY_TOTAL (24 h)?
The KIDNEY_TOTAL was 2 g.

What about the LIVER (24 h) of the same molecule?
Its LIVER is 11.7 g.

What about the ALP (24 h, tissue Plasma) of the same molecule?
Its ALP is 943.6 IU/L.

What about the ALT (24 h, tissue Plasma) of the same molecule?
Its ALT is 39 IU/L.

What about the AST (24 h, tissue Plasma) of the same molecule?
Its AST is 65.2 IU/L.

And the BUN (24 h, tissue Plasma)?
The BUN was 18.2 mg/dL.

And the CRE (24 h, tissue Plasma)?
Its CRE is 0.6 mg/dL.

And the Ca (24 h, tissue Plasma)?
The Ca was 11 mg/dL.

What about the DBIL (24 h, tissue Plasma) of the same molecule?
Its DBIL is 0.082 mg/dL.

And the GLC (24 h, tissue Plasma)?
Its GLC is 199.8 mg/dL.

What about the IP (24 h, tissue Plasma) of the same molecule?
Its IP is 8.5 mg/dL.

What about the K (24 h, tissue Plasma) of the same molecule?
The K was 4.6 meq/L.

And the Na (24 h, tissue Plasma)?
The Na was 140.2 meq/L.

What about the PL (24 h, tissue Plasma) of the same molecule?
The PL was 146 mg/dL.

What about the RALB (24 h, tissue Plasma) of the same molecule?
The RALB was 3.9 g/dL.

What about the TBIL (24 h, tissue Plasma) of the same molecule?
Its TBIL is 0.3 mg/dL.

And the TC (24 h, tissue Plasma)?
Its TC is 76.8 mg/dL.

And the TG (24 h, tissue Plasma)?
The TG was 95.8 mg/dL.

What about the TP (24 h, tissue Plasma) of the same molecule?
Its TP is 5.7 g/dL.
